{"source": "ChEMBL document CHEMBL5370542", "about": "“Current advances of small molecule E3 ligands for proteolysis-targeting chimeras design” (Eur J Med Chem, 2023)", "key": {"[1]": {"molecular_target": "von Hippel-Lindau disease tumor suppressor (Homo sapiens, UniProt P40337)", "sequence (P40337 whole entry)": "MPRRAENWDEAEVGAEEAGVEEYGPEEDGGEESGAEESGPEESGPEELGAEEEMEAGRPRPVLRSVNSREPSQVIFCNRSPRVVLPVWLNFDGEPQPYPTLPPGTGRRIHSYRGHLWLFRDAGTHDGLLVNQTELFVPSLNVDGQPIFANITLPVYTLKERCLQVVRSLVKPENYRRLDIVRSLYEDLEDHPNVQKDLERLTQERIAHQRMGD", "assay": "Binding affinity to VHL (unknown origin) assessed as inhibition constant"}, "[2]": {"molecular_target": "Bromodomain-containing protein 4 (Homo sapiens, UniProt O60885)", "assay": "Induction of HiBit-tagged BRD4 degradation in human A549 cells incubated for 4 to 24 hrs by luminescence based Nano-Glo assay", "format": "cell-based"}, "MV4-11": {"tested_on": "MV4-11", "assay": "Antiproliferative activity against human MV4-11 cells assessed as inhibition of cell growth incubated for 3 days by CellTiter-Glo assay", "format": "functional, cell-based", "conditions": "MV4-11, 72 h"}, "[3]": {"molecular_target": "T1, von Hippel-Lindau disease tumor suppressor/GTPase KRas (Homo sapiens, UniProt P01116+P40337, G12C)", "T1 sequence (P01116 whole entry G12C, stated change not applied)": "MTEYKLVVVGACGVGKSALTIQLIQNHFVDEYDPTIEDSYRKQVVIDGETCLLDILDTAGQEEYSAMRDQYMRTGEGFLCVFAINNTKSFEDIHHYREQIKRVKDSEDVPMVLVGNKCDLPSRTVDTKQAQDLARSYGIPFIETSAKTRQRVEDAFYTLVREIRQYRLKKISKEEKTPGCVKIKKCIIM", "T1 sequence (P40337 whole entry, stated change not applied)": "as the sequence (P40337 whole entry) above", "assay": "PROTAC activity at VHL/KRAS G12C mutant in human NCI-H23 cells assessed as induction of KRAS G12C degradation by Immunoblot analysis", "format": "cell-based"}, "[4]": {"molecular_target": "T1, von Hippel-Lindau disease tumor suppressor/GTPase KRas", "assay": "PROTAC activity at VHL/KRAS G12C mutant in human MIA PaCa-2 cells assessed as induction of KRAS G12C degradation by Immunoblot analysis", "format": "cell-based"}, "[5]": {"molecular_target": "T1, von Hippel-Lindau disease tumor suppressor/GTPase KRas", "assay": "PROTAC activity at VHL/KRAS G12C mutant in human NCI-H358 cells assessed as induction of KRAS G12C degradation by Immunoblot analysis", "format": "cell-based"}, "[6]": {"molecular_target": "T1, von Hippel-Lindau disease tumor suppressor/GTPase KRas", "assay": "PROTAC activity at VHL/KRAS G12C mutant in human SW1573 cells assessed as induction of KRAS G12C degradation by Immunoblot analysis", "format": "cell-based"}, "[7]": {"molecular_target": "T1, von Hippel-Lindau disease tumor suppressor/GTPase KRas", "assay": "PROTAC activity at VHL/KRAS G12C mutant in human NCI- H2030 cells assessed as induction of KRAS G12C degradation by Immunoblot analysis", "format": "cell-based"}, "[8]": {"molecular_target": "von Hippel-Lindau disease tumor suppressor/Mitogen-activated protein kinase 14 (Homo sapiens) (UniProt Q16539+P40337)", "sequence (P40337 whole entry partner)": "as the sequence (P40337 whole entry) above", "sequence (Q16539 2-360 limits assumed)": "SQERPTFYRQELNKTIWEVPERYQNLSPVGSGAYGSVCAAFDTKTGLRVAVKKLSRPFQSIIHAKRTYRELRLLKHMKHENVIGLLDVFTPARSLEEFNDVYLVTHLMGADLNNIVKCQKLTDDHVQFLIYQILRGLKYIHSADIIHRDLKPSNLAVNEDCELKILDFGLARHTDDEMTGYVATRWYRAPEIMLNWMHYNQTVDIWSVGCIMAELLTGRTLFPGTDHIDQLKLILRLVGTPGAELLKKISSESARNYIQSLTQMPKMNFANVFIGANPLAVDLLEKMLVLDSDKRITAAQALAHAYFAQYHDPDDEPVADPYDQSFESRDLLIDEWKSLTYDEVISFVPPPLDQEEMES", "assay": "PROTAC activity at VHL/N-terminal His-tagged human p38alpha expressed in Escherichia coli BL21-CodonPlus (DE3)-RIPL cells assessed as maximal degradation relative to control"}, "[9]": {"molecular_target": "Protein cereblon/Mitogen-activated protein kinase 13 (Homo sapiens) (UniProt O15264+Q96SW2)", "sequence (O15264 whole entry, looked up)": "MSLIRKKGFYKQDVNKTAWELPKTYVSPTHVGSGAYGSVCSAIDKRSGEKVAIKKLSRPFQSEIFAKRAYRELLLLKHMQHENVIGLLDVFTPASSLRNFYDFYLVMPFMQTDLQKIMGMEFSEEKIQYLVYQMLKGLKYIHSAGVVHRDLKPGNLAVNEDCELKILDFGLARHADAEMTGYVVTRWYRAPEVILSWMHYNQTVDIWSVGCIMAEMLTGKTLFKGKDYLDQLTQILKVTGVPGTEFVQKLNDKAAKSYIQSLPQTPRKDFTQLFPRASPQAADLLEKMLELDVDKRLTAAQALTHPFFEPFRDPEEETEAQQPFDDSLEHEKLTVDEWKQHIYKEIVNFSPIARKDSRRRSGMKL", "sequence (Q96SW2 whole entry, looked up)": "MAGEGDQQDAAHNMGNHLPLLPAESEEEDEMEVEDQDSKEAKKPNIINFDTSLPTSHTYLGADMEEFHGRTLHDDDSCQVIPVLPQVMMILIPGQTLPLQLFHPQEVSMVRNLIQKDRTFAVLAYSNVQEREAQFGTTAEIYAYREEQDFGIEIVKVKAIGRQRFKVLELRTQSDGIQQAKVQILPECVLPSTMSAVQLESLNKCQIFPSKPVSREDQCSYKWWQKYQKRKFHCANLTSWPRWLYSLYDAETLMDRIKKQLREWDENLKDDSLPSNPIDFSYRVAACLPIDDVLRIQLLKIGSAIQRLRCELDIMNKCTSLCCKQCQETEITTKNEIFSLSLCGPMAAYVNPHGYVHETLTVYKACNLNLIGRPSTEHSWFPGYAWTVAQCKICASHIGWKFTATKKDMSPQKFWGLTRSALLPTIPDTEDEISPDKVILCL", "assay": "PROTAC activity at CRBN/N-terminal His-tagged human p38delta expressed in Escherichia coli BL21-CodonPlus (DE3)-RIPL cells assessed as maximal degradation degradation relative to control"}}, "data": [{"smiles": "Cc1ncsc1-c1ccc(CNC(=O)[C@@H]2C[C@@H](O)CN2C(=O)c2cccc(N)c2C)cc1", "values": [{"measurement": "Ki", "setting": "[1]", "result": 670, "unit": "nM"}]}, {"smiles": "Cc1cc([C@@H](C(=O)N2C[C@@H](O)C[C@@H]2C(=O)N[C@H](C)c2ccc(-c3scnc3C#CCOCCOCCOCCNC(=O)C[C@@H]3N=C(c4ccc(Cl)cc4)c4c(sc(C)c4C)-n4c(C)nnc43)cc2)C(C)C)on1", "values": [{"measurement": "EC50", "setting": "[2]", "result": "< 50", "unit": "nM"}]}, {"smiles": "Cc1sc2c(c1C)C(c1ccc(Cl)cc1)=N[C@@H](CC(=O)NCCCCNC(=O)COc1cccc3c1C(=O)N(C1CCC(=O)NC1=O)C3=O)c1nnc(C)n1-2", "note": "(stereo not given in full)", "values": [{"measurement": "IC50", "setting": "MV4-11", "result": 6.1, "unit": "nM"}]}, {"smiles": "C=C(F)C(=O)N1CCN(c2nc(OC[C@@H]3CCCN3CCCOCCC(=O)N[C@H](C(=O)N3C[C@H](O)C[C@H]3C(=O)NCc3ccc(-c4scnc4C)cc3)C(C)(C)C)nc3c2CCN(c2cccc4cccc(Cl)c24)C3)C[C@@H]1CC#N", "values": [{"measurement": "EC50", "setting": "[3]", "result": 250, "unit": "nM"}, {"measurement": "EC50", "setting": "[4]", "result": 250, "unit": "nM"}, {"measurement": "EC50", "setting": "[5]", "result": 250, "unit": "nM"}, {"measurement": "EC50", "setting": "[6]", "result": 250, "unit": "nM"}, {"measurement": "EC50", "setting": "[7]", "result": 250, "unit": "nM"}]}, {"smiles": "COc1cc2c(Oc3ccc(NC(=O)C4(C(=O)Nc5ccc(F)cc5)CC4)cc3F)ccnc2cc1OCCCN1CCOCC1", "values": [{"measurement": "Emax", "setting": "[8]", "result": 91, "unit": "%"}, {"measurement": "Emax", "setting": "[9]", "result": 91, "unit": "%"}]}]}
